Experimental data reported in the kinase profiling compilation of Christmann-Franck et al. (2016).
Several values for one entry are separate records, joined by “and”; a condition that tells them apart may be missing. Equal values may be shown once.

What was measured:
Experiment in all cases: radiometric filter-binding kinase assay, Kinase HotSpot
Conditions in all cases: compound 0.5 µM; ATP 10 µM
[1] = biological target: ADRBK2 (human) (UniProt P35626)
[2] = biological target: AKT3 (human) (UniProt Q9Y243)
[3] = biological target: ALK (human) (UniProt Q9UM73)
[4] = biological target: CAMK1D (human) (UniProt Q8IU85)
[5] = biological target: CDC42BPB (human) (UniProt Q9Y5S2)
[6] = biological target: CDK5 CDK5R1 p35 (human) (UniProt Q00535+Q15078)
[7] = biological target: CDK9 CCNT1 (human) (UniProt P50750+O60563)
[8] = biological target: CHUK (human) (UniProt O15111)
[9] = biological target: CLK3 (human) (UniProt P49761)
[10] = biological target: CSNK1E (human) (UniProt P49674)
[11] = biological target: CSNK2A2 (human) (UniProt P19784)
[12] = biological target: EPHA2 (human) (UniProt P29317)
[13] = biological target: EPHA5 (human) (UniProt P54756)
[14] = biological target: ERBB4 (human) (UniProt Q15303)
[15] = biological target: FGFR4 (human) (UniProt P22455)
[16] = biological target: GRK4 (human) (UniProt P32298)
[17] = biological target: HIPK3 (human) (UniProt Q9H422)
[18] = biological target: IKBKB (human) (UniProt O14920)
[19] = biological target: MAP3K11 (human) (UniProt Q16584)
[20] = biological target: MAPK1 (human) (UniProt P28482)
[21] = biological target: MAPK12 (human) (UniProt P53778)
[22] = biological target: MAPK13 (human) (UniProt O15264)
[23] = biological target: MAPK3 (human) (UniProt P27361)
[24] = biological target: MARK4 (human) (UniProt Q96L34)
[25] = biological target: NLK (human) (UniProt Q9UBE8)
[26] = biological target: NTRK1 (human) (UniProt P04629)
[27] = biological target: NTRK2 (human) (UniProt Q16620)
[28] = biological target: NTRK3 (human) (UniProt Q16288)
[29] = biological target: PAK3 (human) (UniProt O75914)
[30] = biological target: PKN2 (human) (UniProt Q16513)
[31] = biological target: PRKACA (human) (UniProt P17612)
[32] = biological target: PRKCE (human) (UniProt Q02156)
[33] = biological target: PRKCG (human) (UniProt P05129)
[34] = biological target: PRKG1 (human) (UniProt Q13976)
[35] = biological target: PRKG2 (human) (UniProt Q13237)
[36] = biological target: RAF1 (human) (UniProt P04049)
[37] = biological target: ROCK2 (human) (UniProt O75116)
[38] = biological target: STK11 (human) (UniProt Q15831)
[39] = biological target: TGFBR2 (human) (UniProt P37173)
[40] = biological target: TSSK1B (human) (UniProt Q9BXA7)
[41] = biological target: ULK1 (human) (UniProt O75385)
[42] = biological target: WNK3 (human) (UniProt Q9BYP7)

Chain of PRKG1 (human) (Q13976 whole entry, looked up): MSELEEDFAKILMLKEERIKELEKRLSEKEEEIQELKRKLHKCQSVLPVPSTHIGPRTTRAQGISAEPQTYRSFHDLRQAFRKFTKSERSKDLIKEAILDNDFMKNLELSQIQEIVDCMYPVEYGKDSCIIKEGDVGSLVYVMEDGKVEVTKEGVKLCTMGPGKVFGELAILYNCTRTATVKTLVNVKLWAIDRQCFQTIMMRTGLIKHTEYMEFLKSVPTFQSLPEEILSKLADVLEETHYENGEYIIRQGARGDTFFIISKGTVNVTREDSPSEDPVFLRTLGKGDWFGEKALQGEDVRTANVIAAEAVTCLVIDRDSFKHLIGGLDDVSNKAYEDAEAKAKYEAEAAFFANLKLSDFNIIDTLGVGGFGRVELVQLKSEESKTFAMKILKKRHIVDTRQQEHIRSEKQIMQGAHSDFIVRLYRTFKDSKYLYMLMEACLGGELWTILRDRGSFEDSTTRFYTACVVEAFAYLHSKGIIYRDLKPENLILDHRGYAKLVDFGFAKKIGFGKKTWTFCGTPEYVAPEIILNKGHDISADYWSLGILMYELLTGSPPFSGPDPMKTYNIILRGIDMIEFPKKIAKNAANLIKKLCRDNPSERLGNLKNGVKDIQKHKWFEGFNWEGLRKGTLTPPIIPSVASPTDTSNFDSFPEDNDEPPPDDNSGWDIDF
Chain of TSSK1B (human) (Q9BXA7 whole entry, looked up): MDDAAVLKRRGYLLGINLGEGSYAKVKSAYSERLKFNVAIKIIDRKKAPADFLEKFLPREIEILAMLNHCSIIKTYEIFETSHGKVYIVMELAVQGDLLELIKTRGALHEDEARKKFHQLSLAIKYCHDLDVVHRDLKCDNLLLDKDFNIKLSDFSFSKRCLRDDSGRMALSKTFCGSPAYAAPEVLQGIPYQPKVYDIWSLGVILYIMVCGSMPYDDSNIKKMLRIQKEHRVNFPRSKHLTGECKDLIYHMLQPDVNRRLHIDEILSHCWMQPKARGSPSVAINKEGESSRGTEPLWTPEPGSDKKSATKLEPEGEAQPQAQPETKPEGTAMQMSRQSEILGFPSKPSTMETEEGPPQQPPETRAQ
Chain of PRKCE (human) (Q02156 whole entry, looked up): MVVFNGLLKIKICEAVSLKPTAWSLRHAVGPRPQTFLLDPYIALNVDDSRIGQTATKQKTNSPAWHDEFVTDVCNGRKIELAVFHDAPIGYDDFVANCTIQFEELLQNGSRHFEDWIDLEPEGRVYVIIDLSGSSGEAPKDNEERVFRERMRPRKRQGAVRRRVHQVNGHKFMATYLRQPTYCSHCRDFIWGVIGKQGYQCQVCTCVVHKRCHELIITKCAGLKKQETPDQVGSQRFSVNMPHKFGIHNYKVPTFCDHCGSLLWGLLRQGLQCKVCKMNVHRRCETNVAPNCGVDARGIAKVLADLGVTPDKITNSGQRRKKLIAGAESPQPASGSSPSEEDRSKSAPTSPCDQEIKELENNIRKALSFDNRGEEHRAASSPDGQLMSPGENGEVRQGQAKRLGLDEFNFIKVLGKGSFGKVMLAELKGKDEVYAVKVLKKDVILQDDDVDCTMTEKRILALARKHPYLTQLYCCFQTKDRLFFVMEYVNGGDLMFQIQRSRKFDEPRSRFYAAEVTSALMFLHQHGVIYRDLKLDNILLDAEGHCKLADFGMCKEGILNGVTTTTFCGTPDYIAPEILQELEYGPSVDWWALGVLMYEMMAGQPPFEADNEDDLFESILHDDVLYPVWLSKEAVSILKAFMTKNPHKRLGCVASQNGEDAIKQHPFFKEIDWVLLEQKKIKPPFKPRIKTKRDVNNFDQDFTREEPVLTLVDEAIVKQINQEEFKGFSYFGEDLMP
Chain of MAPK1 (human) (P28482 whole entry, looked up): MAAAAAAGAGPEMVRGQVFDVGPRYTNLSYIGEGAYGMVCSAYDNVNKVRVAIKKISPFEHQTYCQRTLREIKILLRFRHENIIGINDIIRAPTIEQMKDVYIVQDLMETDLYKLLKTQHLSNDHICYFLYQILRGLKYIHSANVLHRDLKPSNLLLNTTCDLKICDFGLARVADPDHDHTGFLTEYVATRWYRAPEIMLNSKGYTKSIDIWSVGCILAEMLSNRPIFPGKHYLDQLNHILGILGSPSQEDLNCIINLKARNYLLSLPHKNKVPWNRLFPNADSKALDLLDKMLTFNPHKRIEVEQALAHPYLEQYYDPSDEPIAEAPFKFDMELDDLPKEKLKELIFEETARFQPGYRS
Chain of MAPK13 (human) (O15264 whole entry, looked up): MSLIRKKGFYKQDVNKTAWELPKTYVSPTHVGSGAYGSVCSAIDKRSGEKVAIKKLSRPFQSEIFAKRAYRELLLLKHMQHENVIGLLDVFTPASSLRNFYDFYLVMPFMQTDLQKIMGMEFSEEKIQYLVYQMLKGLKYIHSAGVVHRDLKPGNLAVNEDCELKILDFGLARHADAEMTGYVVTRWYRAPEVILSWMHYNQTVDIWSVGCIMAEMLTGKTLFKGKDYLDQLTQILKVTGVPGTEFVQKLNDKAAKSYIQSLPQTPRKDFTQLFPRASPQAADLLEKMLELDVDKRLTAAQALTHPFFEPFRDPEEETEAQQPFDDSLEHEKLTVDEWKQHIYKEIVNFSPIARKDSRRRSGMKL
Chain of ALK (human) (Q9UM73 whole entry, looked up): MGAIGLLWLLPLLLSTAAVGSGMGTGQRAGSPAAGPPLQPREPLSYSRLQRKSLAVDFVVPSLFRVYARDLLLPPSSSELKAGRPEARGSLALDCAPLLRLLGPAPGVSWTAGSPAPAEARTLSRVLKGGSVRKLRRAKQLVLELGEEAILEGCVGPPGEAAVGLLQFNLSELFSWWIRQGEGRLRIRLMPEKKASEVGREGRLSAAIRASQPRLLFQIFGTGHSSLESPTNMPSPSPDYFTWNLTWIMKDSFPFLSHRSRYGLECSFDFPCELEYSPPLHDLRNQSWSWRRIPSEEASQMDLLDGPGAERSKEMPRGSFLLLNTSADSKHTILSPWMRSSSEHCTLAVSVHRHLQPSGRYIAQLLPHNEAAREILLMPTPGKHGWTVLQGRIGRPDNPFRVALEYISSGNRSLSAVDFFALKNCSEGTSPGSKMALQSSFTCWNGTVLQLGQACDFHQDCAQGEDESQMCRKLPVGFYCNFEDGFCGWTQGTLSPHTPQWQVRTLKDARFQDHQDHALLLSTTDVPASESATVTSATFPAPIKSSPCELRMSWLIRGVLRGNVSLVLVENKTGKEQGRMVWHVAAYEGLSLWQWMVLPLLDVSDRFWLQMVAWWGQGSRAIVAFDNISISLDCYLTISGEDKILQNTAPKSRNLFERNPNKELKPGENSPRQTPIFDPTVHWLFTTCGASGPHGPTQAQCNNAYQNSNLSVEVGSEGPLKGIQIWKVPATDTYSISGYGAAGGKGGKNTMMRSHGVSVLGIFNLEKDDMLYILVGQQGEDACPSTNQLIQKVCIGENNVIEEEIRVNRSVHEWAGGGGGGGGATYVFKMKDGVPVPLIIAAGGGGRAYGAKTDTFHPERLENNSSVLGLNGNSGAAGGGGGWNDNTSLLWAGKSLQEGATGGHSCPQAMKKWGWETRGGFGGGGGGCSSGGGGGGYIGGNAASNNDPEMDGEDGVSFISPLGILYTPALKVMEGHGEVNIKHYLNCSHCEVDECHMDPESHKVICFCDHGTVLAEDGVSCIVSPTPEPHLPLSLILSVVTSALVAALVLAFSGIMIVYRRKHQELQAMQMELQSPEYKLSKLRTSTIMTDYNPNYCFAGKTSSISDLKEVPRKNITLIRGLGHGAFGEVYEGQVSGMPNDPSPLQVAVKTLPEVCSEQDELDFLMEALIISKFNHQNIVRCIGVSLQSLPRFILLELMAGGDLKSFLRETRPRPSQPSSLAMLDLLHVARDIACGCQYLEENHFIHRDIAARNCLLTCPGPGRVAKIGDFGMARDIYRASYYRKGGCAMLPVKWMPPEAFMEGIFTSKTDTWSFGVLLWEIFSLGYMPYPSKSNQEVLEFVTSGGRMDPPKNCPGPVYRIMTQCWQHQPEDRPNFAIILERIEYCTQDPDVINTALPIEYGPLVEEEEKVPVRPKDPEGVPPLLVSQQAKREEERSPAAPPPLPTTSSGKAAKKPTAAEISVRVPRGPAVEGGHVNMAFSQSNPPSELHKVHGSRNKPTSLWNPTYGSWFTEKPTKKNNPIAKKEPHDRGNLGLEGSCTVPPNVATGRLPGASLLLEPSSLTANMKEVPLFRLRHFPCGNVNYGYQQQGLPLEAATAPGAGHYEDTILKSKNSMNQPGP
Chain of TGFBR2 (human) (P37173 whole entry, looked up): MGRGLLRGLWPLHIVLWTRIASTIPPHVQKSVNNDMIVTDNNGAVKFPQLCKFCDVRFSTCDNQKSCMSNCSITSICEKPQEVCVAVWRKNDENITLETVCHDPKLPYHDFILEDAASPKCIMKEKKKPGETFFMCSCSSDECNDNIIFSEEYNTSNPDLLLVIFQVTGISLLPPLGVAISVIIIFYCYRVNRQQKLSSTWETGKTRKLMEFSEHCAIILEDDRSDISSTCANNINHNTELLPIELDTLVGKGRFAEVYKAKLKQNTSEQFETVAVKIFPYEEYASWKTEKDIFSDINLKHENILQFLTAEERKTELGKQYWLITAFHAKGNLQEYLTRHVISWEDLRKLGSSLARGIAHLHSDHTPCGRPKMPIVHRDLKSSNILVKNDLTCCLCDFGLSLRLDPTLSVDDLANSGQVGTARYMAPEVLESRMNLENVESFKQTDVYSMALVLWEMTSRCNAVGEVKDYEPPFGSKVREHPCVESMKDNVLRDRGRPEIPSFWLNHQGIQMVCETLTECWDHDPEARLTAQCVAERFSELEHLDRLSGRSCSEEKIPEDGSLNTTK
Chain of CSNK2A2 (human) (P19784 whole entry, looked up): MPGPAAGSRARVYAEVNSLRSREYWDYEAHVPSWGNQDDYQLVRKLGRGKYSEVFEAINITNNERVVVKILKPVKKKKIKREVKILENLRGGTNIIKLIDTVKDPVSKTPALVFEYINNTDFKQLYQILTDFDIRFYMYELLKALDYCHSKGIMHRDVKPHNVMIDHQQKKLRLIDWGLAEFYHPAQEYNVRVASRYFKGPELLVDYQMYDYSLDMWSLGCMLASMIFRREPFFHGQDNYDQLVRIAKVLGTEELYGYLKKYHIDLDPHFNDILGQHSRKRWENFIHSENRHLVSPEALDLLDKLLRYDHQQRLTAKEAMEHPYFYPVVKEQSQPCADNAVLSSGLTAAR

Structure (SMILES): N#CC(C#N)=C(N)/C(C#N)=C/c1ccc(O)cc1
- residual activity [1]: 96.7%
- residual activity [2]: 95.8%
- residual activity [3]: 109%
- residual activity [4]: 98.9%
- residual activity [5]: 109%
- residual activity [6]: 91.9%
- residual activity [7]: 83.9%
- residual activity [8]: 94%
- residual activity [9]: 100%
- residual activity [10]: 92.4%
- residual activity [11]: 102%
- residual activity [12]: 100%
- residual activity [13]: 94.3%
- residual activity [14]: 92.7%
- residual activity [15]: 91.1%
- residual activity [16]: 99.6%
- residual activity [17]: 102%
- residual activity [18]: 102%
- residual activity [19]: 94.8%
- residual activity [20]: 101%
- residual activity [21]: 92.6%
- residual activity [22]: 103%
- residual activity [23]: 101%
- residual activity [24]: 94.3%
- residual activity [25]: 96.7%
- residual activity [26]: 102%
- residual activity [27]: 95.4%
- residual activity [28]: 95.5%
- residual activity [29]: 98.4%
- residual activity [30]: 96.9%
- residual activity [31]: 100%
- residual activity [32]: 89.3%
- residual activity [33]: 105%
- residual activity [34]: 89.5% and 91.3%
- residual activity [35]: 86.9%
- residual activity [36]: 86.3%
- residual activity [37]: 98.3%
- residual activity [38]: 96.5%
- residual activity [39]: 113%
- residual activity [40]: 111%
- residual activity [41]: 89.3%
- residual activity [42]: 99.8%

Structure (SMILES): O=C(Nc1cccc(Nc2nccc(Nc3cccc(C(F)(F)F)c3)n2)c1)C1CC1
- residual activity [1]: 93.1%
- residual activity [2]: 108%
- residual activity [3]: 99.8%
- residual activity [4]: 100%
- residual activity [5]: 96.6%
- residual activity [6]: 105%
- residual activity [7]: 86.8%
- residual activity [8]: 95.7%
- residual activity [9]: 104%
- residual activity [10]: 110%
- residual activity [11]: 95.4%
- residual activity [12]: 87.3%
- residual activity [13]: 96.2%
- residual activity [14]: 103%
- residual activity [15]: 101%
- residual activity [16]: 96.9%
- residual activity [17]: 104%
- residual activity [18]: 97.9%
- residual activity [19]: 89.5%
- residual activity [20]: 89%
- residual activity [21]: 99.7%
- residual activity [22]: 99.6%
- residual activity [23]: 98.2%
- residual activity [24]: 108%
- residual activity [25]: 101%
- residual activity [26]: 98.1%
- residual activity [27]: 71.6%
- residual activity [28]: 77.3%
- residual activity [29]: 98.9%
- residual activity [30]: 89.5%
- residual activity [31]: 91.7%
- residual activity [32]: 106%
- residual activity [33]: 90.9%
- residual activity [34]: 97.6% and 99.3%
- residual activity [35]: 96.2%
- residual activity [36]: 98.7%
- residual activity [37]: 105%
- residual activity [38]: 82.8%
- residual activity [39]: 91.6%
- residual activity [40]: 100%
- residual activity [41]: 105%
- residual activity [42]: 105%
